Where two headings read alike, the source gives them in different places.
Molecular target: HIV-1LAI envelope gp120 (Human immunodeficiency virus type 1 group M subtype B, UniProt P03377)
Assay type: binding
Details: for Counts per 20′ Average-background: CCR5 18-mer scan, radiolabeled HIV-1LAI gp120; for Binding Results For Window Length (counts bound-background), 9 / Binding Results For Window Length (counts bound-background), 12 / Binding Results For Window Length (counts bound-background), 15 / Binding Results For Window Length (counts bound-background), 18: STRL33 amino terminus; for Binding Results For Window Length (counts bound-background), 9: 9-mer starting at the first residue of the printed sequence; for Binding Results For Window Length (counts bound-background), 12: 12-mer starting at the first residue of the printed sequence; for Binding Results For Window Length (counts bound-background), 15: 15-mer starting at the first residue of the printed sequence; for Binding Results For Window Length (counts bound-background), 18: 18-mer starting at the first residue of the printed sequence
[1] = Panel E, 9-mers and 12-mers of CD4, empty control 571
[2] = Panel C, 15-mers and 18-mers of CD4, empty control 556
[3] = Panel A, 21-mers of CD4, empty control 515 and 617
[4] = CXCR4 18-mer scan, background subtracted, empty control 0
[5] = CXCR4 18-mer scan, empty control 412
[6] = STRL33 18-mer scan, background subtracted, first of two count columns
[7] = STRL33 18-mer scan, background subtracted, second of two count columns
[8] = Panel D, 9-mers and 12-mers of CD4, empty control […]
[9] = Panel B, 15-mers and 18-mers of CD4, empty control 575

FKIDIVVLAFQK
COUNTS of radiolabeled gp120 retained [1]: 736 counts

FKIDIVVLAFQKASS
COUNTS of radiolabeled gp120 retained [2]: 1001 counts

FKIDIVVLAFQKASSIVY
COUNTS of radiolabeled gp120 retained [2]: 843 counts

FKIDIVVLAFQKASSIVYKKE
COUNTS of radiolabeled gp120 retained [3]: 593 counts

FKTSAQHALTSVSRGSSL
radioactive counts recorded in twenty minutes [4]: 173 counts
radioactive counts recorded in twenty minutes [5]: 585 counts

FLFWAPYNIVLLLNTFQE [CCR5 segment 245-]
Counts per 20′ Average-background (background subtracted): 616 counts per 20′

FLPCMYLVVFVCGLVGNS [STRL33 segment 33-50]
radioactive counts recorded in twenty minutes [6]: 605.5 counts
radioactive counts recorded in twenty minutes [7]: 372.5 counts

FLPLLTMIVCYSVIIKTL
radioactive counts recorded in twenty minutes [6]: 1270.5 counts
radioactive counts recorded in twenty minutes [7]: 1195.5 counts

FLTGIVGNGLVILVMGYQ [CXCR4 segment 49-66]
radioactive counts recorded in twenty minutes [4]: 246 counts
radioactive counts recorded in twenty minutes [5]: 658 counts

FLVNLPLADLVFVCTLPF [STRL33 segment 69-86]
radioactive counts recorded in twenty minutes [6]: 70.5 counts
radioactive counts recorded in twenty minutes [7]: 51.5 counts

FNDSSQEEEQAFLQFSKV
Binding Results For Window Length (counts bound-background), 9 (background subtracted): 246 counts
Binding Results For Window Length (counts bound-background), 12 (background subtracted): 470 counts
Binding Results For Window Length (counts bound-background), 15 (background subtracted): 4089 counts
Binding Results For Window Length (counts bound-background), 18 (background subtracted): 4678 counts

FNLDKLICGYHDEAISTV
radioactive counts recorded in twenty minutes [6]: 1072.5 counts
radioactive counts recorded in twenty minutes [7]: 1078.5 counts

FPLAFTVEK
COUNTS of radiolabeled gp120 retained [1]: 569 counts

FPLAFTVEKLTG
COUNTS of radiolabeled gp120 retained [1]: 622 counts

FPLAFTVEKLTGSGE
COUNTS of radiolabeled gp120 retained [2]: 556 counts

FPLAFTVEKLTGSGELWW
COUNTS of radiolabeled gp120 retained [2]: 586 counts

FPLAFTVEKLTGSGELWWQAE
COUNTS of radiolabeled gp120 retained [3]: 6276 counts

FPLIIKNLK
COUNTS of radiolabeled gp120 retained [8]: 601 counts

FPLIIKNLKIED
COUNTS of radiolabeled gp120 retained [8]: 511 counts

FPLIIKNLKIEDSDT
COUNTS of radiolabeled gp120 retained [9]: 539 counts

FPLIIKNLKIEDSDTYIC
COUNTS of radiolabeled gp120 retained [9]: 509 counts

FQHIMVGLILPGIVILSC
radioactive counts recorded in twenty minutes [4]: 170 counts
radioactive counts recorded in twenty minutes [5]: 582 counts

FQKASSIVY
COUNTS of radiolabeled gp120 retained [1]: 568 counts

FQKASSIVYKKE
COUNTS of radiolabeled gp120 retained [1]: 577 counts

FQKASSIVYKKEGEQ
COUNTS of radiolabeled gp120 retained [2]: 637 counts

FQKASSIVYKKEGEQVEF
COUNTS of radiolabeled gp120 retained [2]: 528 counts

FQKASSIVYKKEGEQVEFSFP
COUNTS of radiolabeled gp120 retained [3]: 9382 counts

FQTLKIVILGLVLPLLVM [CCR5 segment 193-]
Counts per 20′ Average-background (background subtracted): 45 counts per 20′

FREENANFNKIFLPTIYS [CXCR4 segment 29-46]
radioactive counts recorded in twenty minutes [4]: 51 counts
radioactive counts recorded in twenty minutes [5]: 463 counts

FSFPLAFTV
COUNTS of radiolabeled gp120 retained [1]: 472 counts

FSFPLAFTVEKL
COUNTS of radiolabeled gp120 retained [1]: 573 counts

FSFPLAFTVEKLTGS
COUNTS of radiolabeled gp120 retained [2]: 672 counts

FSFPLAFTVEKLTGSGEL
COUNTS of radiolabeled gp120 retained [2]: 613 counts

FSFPLAFTVEKLTGSGELWWQ
COUNTS of radiolabeled gp120 retained [3]: 4163 counts
number of radioactive decays (counts) counted (human CD4 21-mer scan, empty control 2075): 9673 counts

FSGIFFIILLTIDRYLAV [CCR5 segment 113-]
Counts per 20′ Average-background (background subtracted): 83 counts per 20′

FSKVFLPCMYLVVFVCGL [STRL33 segment 29-46]
radioactive counts recorded in twenty minutes [6]: 534.5 counts
radioactive counts recorded in twenty minutes [7]: 633.5 counts

FSSFNDSSQEEHQAFLQF
Binding Results For Window Length (counts bound-background), 9 (background subtracted): 249 counts
Binding Results For Window Length (counts bound-background), 12 (background subtracted): 403 counts
Binding Results For Window Length (counts bound-background), 15 (background subtracted): 361 counts
Binding Results For Window Length (counts bound-background), 18 (background subtracted): 3608 counts

FTVEKLTGS
COUNTS of radiolabeled gp120 retained [1]: 574 counts

FTVEKLTGSGEL
COUNTS of radiolabeled gp120 retained [1]: 530 counts

FTVEKLTGSGELWWQ
COUNTS of radiolabeled gp120 retained [2]: 625 counts

FTVEKLTGSGELWWQAER
COUNTS of radiolabeled gp120 retained [2]: 1143 counts

Reference: patent US20030068615A1, “Polypeptides that bind HIV gp120 and related nucleic acids, antibodies, compositions, and methods of use” (priority 1999, published 2003)
